Experimental data: ChEMBL document CHEMBL4014316, “Amphiphilic Guanidinocalixarenes Inhibit Lipopolysaccharide (LPS)- and Lectin-Stimulated Toll-like Receptor 4 (TLR4) Signaling” (J Med Chem, 2017); call rule not given here

Experiments:
Assay type in all cases: cell-based
Toll-like receptor 4 = Toll-like receptor 4 (Homo sapiens, UniProt O00206); assay: Activation of TLR4 signaling (unknown origin) expressed in HEK-Blue cells after 30 mins by secreted embryonic alkaline phosphatase reporter gene assay; details: 0.5 h
Toll-like receptor 4, sequence (O00206 whole entry): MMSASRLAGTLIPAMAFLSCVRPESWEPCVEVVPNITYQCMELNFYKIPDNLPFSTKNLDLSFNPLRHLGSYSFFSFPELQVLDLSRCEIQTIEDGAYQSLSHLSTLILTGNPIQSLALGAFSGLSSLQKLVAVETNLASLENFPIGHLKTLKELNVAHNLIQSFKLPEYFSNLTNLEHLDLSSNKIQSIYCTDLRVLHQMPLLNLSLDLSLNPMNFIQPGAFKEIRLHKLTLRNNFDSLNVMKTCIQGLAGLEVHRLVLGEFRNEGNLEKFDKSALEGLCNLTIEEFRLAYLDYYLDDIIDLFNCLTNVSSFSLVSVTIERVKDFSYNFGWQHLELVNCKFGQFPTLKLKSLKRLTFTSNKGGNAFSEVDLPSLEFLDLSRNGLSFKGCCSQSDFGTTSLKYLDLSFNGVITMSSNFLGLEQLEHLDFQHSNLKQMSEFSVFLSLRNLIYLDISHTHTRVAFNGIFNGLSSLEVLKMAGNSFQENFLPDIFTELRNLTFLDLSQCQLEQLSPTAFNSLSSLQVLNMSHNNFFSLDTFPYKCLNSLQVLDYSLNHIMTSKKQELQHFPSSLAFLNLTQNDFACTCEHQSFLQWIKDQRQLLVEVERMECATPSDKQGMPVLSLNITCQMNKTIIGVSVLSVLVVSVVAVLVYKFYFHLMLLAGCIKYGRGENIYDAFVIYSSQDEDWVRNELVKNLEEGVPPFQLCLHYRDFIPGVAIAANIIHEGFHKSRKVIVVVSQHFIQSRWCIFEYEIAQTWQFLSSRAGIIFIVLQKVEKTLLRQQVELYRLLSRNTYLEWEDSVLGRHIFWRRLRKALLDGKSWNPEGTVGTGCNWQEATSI

[1] = Cytotoxicity against HEK-Blue cells assessed as reduction in cell viability up to 10 uM measured after overnight incubation by MTT assay; details: human
[2] = biological target: Toll-like receptor 4/MD-2/CD14 (Homo sapiens, UniProt O00206+P08571+Q9Y6Y9); assay: (§1) Binding affinity to CD14/MD2 (unknown origin) expressed in HEK-Blue cells co-expressing TLR4 assessed as inhibition of LPS-induced TLR4 signaling preincubated for 30 mins followed by LPS stimulation measured after overnight incubation by secreted embryonic alkaline phosphatase reporter gene assay
Toll-like receptor 4/MD-2/CD14, sequence (O00206 whole entry): as above
Toll-like receptor 4/MD-2/CD14, sequence (Q9Y6Y9 whole entry): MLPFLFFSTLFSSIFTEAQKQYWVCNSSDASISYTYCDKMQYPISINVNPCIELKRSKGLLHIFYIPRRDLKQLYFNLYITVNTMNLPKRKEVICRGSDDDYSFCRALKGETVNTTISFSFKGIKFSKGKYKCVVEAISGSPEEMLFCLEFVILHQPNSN
Toll-like receptor 4/MD-2/CD14, sequence (P08571 whole entry): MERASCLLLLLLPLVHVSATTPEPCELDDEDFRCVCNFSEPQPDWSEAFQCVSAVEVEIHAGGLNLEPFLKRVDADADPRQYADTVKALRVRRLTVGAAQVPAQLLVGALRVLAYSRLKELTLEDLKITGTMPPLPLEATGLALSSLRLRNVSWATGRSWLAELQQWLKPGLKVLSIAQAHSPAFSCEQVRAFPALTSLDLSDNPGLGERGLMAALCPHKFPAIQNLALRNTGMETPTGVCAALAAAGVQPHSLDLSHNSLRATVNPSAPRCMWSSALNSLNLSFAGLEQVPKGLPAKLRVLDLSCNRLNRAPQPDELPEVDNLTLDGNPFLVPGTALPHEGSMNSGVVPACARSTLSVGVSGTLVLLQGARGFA

[3] = biological target: Toll-like receptor 4/MD-2/CD14 (Homo sapiens) (UniProt O00206+Q9Y6Y9+P08571); assay: as §1

SMILES	Activity (Toll-like receptor 4)	Activity [1]	IC50 [2] [µM]	inhibition [3]
CCCOc1c2cc(NC(=N)N)cc1Cc1cc(NC(=N)N)cc(c1OCCC)Cc1cc(NC(=N)N)cc(c1OCCC)Cc1cc(NC(=N)N)cc(c1OCCC)C2.Cl.Cl.Cl.Cl	Not Active	Non-Toxic		
CC(C)(C)c1cc2c(OCCCCNC(=N)N)c(c1)Cc1cc(C(C)(C)C)cc(c1OCCCCNC(=N)N)Cc1cc(C(C)(C)C)cc(c1OCCCCNC(=N)N)Cc1cc(C(C)(C)C)cc(c1OCCCCNC(=N)N)C2.Cl.Cl.Cl.Cl	Not Active		0.2	Dose-dependent effect
CC(C)(C)c1cc2c(OCCCNC(=N)N)c(c1)Cc1cc(C(C)(C)C)cc(c1OCCCNC(=N)N)Cc1cc(C(C)(C)C)cc(c1OCCCNC(=N)N)Cc1cc(C(C)(C)C)cc(c1OCCCNC(=N)N)C2.Cl.Cl.Cl.Cl	Not Active		10	Dose-dependent effect
CCCCCCOc1c2cc(NC(=N)N)cc1Cc1cc(NC(=N)N)cc(c1OCCCCCC)Cc1cc(NC(=N)N)cc(c1OCCCCCC)Cc1cc(NC(=N)N)cc(c1OCCCCCC)C2.Cl.Cl.Cl.Cl	Not Active	Non-Toxic		
